{
  "source": "patent US20150050677A1",
  "about": "“METHODS AND SYSTEMS FOR MEASURING WHOLE BLOOD PLATELET REACTIVITY” (University of Massachusetts Medical School, priority 2013, published 2015)",
  "key": {"[1]": {"tested_on": "ADP-induced platelet aggregation", "details": "for Number of subjects with clopidogrel HTPR by original PRU: post-clopidogrel"}, "[2]": {"tested_on": "platelet reactivity (PRU)", "details": "PRU≧235; of the 1213 patients in the assay-guided group; cited from earlier work"}, "[3]": {"tested_on": "maximal platelet reactivity (iso-TRAP-induced platelet activation)", "details": "6-24 hours after 300-600 mg clopidogrel loading; pre-clopidogrel 279±47; p<0.0001; mean±SD"}, "[4]": {"tested_on": "ADP-induced platelet aggregation", "details": "P<0.0001", "description": "After collection of baseline blood samples but prior to coronary angiography, subjects were administered a loading dose of 300-600 mg clopidogrel. Percutaneous coronary intervention (PCI) was performed at the same time on an ad hoc basis at the discretion of the treating physician. Patients were excluded from further analysis if a glycoprotein IIb/IIIa antagonist was used during PCI.\nBlood samples were collected at baseline, prior to clopidogrel administration, and 6-24 hours later, after the catheterization procedure. After discarding the first 10 ml, blood was collected into siliconized glass vacutainers containing 3.2% sodium citrate (for platelet function testing and measurement of fibrinogen and vonWillebrand factor antigen) or EDTA-containing vacutainers (for complete blood counts). The samples were maintained at room temperature and hand-delivered to the laboratory where platelet function analyses were performed within 60 minutes of collection. Aliquots of centrifuged platelet-poor plasma and serum were stored at −70° C. until batch analyzed.\nCitrated blood was centrifuged to obtain platelet-rich plasma (PRP) and adjusted to a final platelet count of 180,000 mm^−3 as previously described. […]"}, "[5]": {"tested_on": "platelet reactivity (PRU)", "details": "PRU value >208; of the 3283 patients screened; cited from earlier work"}},
  "note": "Like-named read-outs stand apart in the source and are kept apart here.",
  "data": [
    {"compound": "COC(=O)[C@H](c1ccccc1Cl)N1CCc2sccc2C1", "note": "[clopidogrel]", "values": [
      {"measurement": "mean VerifyNow PRU following clopidogrel loading", "setting": "[1]; 6-24 hours after 300-600 mg clopidogrel loading, pre-clopidogrel 287±56, p<0.0001, mean±SD", "result": "179±90", "unit": "PRU"},
      {"measurement": "Number of subjects with clopidogrel HTPR by Corrected PRU", "setting": "[1]; PRU threshold ≧178, PRU corrected for hematocrit (7.5 PRU per percent around 42%)", "result": "46 (48%) subjects (%)"},
      {"measurement": "Number of subjects with clopidogrel HTPR by original PRU", "setting": "[1]; PRU threshold ≧178", "result": "50 (51%) subjects (%)"},
      {"measurement": "Number of subjects with clopidogrel HTPR by Corrected PRU", "setting": "[1]; PRU threshold ≧208, PRU corrected for hematocrit", "result": "33 (34%) subjects (%)"},
      {"measurement": "Number of subjects with clopidogrel HTPR by original PRU", "setting": "[1]; PRU threshold ≧208", "result": "39 (40%) subjects (%)"},
      {"measurement": "Number of subjects with clopidogrel HTPR by Corrected PRU", "setting": "[1]; PRU threshold ≧230, PRU corrected for hematocrit", "result": "21 (22%) subjects (%)"},
      {"measurement": "Number of subjects with clopidogrel HTPR by original PRU", "setting": "[1]; PRU threshold ≧230", "result": "31 (32%) subjects (%)"},
      {"measurement": "Number of subjects with clopidogrel HTPR by Corrected PRU", "setting": "[1]; PRU threshold ≧235, PRU corrected for hematocrit", "result": "19 (20%) subjects (%)"},
      {"measurement": "Number of subjects with clopidogrel HTPR by original PRU", "setting": "[1]; PRU threshold ≧235", "result": "30 (31%) subjects (%)"},
      {"measurement": "Number of subjects with clopidogrel HTPR by Corrected PRU", "setting": "[1]; PRU threshold ≧236, PRU corrected for hematocrit", "result": "18 (19%) subjects (%)"},
      {"measurement": "Number of subjects with clopidogrel HTPR by original PRU", "setting": "[1]; PRU threshold ≧236", "result": "30 (31%) subjects (%)"},
      {"measurement": "change in PRU following clopidogrel loading (mean PRU)", "setting": "[1]; subjects with anemia", "result": "106±89", "unit": "PRU"},
      {"measurement": "change in PRU following clopidogrel loading (mean PRU)", "setting": "[1]; subjects without anemia, p=0.96 vs anemia", "result": "107±85", "unit": "PRU"},
      {"measurement": "patients with clopidogrel HTPR", "setting": "[2]", "result": "419 (35%) patients (%)"},
      {"measurement": "mean BASE following clopidogrel loading", "setting": "[3]", "result": "298±53", "unit": "Base units"},
      {"measurement": "median aggregation by WBA after clopidogrel loading", "setting": "[4]; 10 μM ADP, fell from 16 (IQR;11,24)", "result": "4 (IQR; 0,12) ohms"},
      {"measurement": "median aggregation by LTA after clopidogrel loading", "setting": "[4]; 20 μM ADP, fell from 84 (IQR;71, 94)", "result": "52 (IQR;37,70) percent"},
      {"measurement": "patients classified as having HTPR", "setting": "[5]", "result": 625, "unit": "patients"}
    ]}
  ]
}
